Reference: patent US6034230A, “Nucleic acids encoding myocardial peptides” (priority 1999, dated 2000)

Tested on: Balb/c mice
Assay: Oligodeoxynucleotides as immunostimulators: immunization with M7A-alpha peptide plus oligodeoxynucleotide, inflammatory heart disease at day 21
Format: in vivo
Details: for Severity of inflammatory heart disease (score) / Prevalence of inflammatory heart disease: Table 2, day 21; for Severity of inflammatory heart disease (score): about 10 nmol oligodeoxynucleotide + about 50 micrograms M7A-alpha, score scale of Example 1; for Immunostimulatory / adjuvant activity: with M7A-alpha peptide, in the absence of Freund's complete adjuvant
[1] = about 10 nmol oligodeoxynucleotide as adjuvant + about 50 micrograms M7A-alpha, Freund's incomplete adjuvant, days 0 and 7

GTACTGACGTTTACTCTTGG (chemistry not given here) [CpG, oligonucleotide from DNA encoding 60 kDa cysteine rich outer membrane protein of Chlamydia trachomatis, containing a CpG motif]
Severity of inflammatory heart disease (score) (Freund's incomplete adjuvant): 1.2 ± 0.4 | Prevalence of inflammatory heart disease [1]: 5/5 | Prevalence of inflammatory heart disease (negative control: about 10 nmol oligodeoxynucleotide without peptide): 0/5 | Immunostimulatory / adjuvant activity: potent immunostimulator

GTACTGAGCTTTACTCTTGG (chemistry not given here) [non-CpG, counterpart of the CpG oligo not containing the CpG motif, reference compound]
Severity of inflammatory heart disease (score) (Freund's incomplete adjuvant): 1.0 ± 0.0 | Prevalence of inflammatory heart disease [1]: 1/5 | Immunostimulatory / adjuvant activity: hardly effective as an adjuvant
